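96-well plates; 48 h exposure; 5 concentrations. Endpoints by linear interpolation between flanking doses. Not reached: highest tested concentration assigned. The concentration for 50% growth inhibition is given as GI50.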 Active and inactive are the calls of the source. Cut-off read from the data, not from the text of the source: active = GI50 up to about 1.1 µM and inactive = higher.
Legend:
Experiment in all cases: growth of human tumour cells (NCI), 48 h
IGROV-1 = system: IGROV-1
UACC-257 = system: UACC-257
SNB-19 = system: SNB-19
ACHN = system: ACHN
OVCAR-3 = system: OVCAR-3
NCI-H522 = system: NCI-H522
HCT-116 = system: HCT-116
MOLT-4 = system: MOLT-4
T47D = system: T47D
MCF7 = system: MCF7
DU-145 = system: DU-145
TK-10 = system: TK-10
A498 = system: A498
SW-620 = system: SW-620
OVCAR-4 = system: OVCAR-4
Hs-578T = system: Hs-578T
RXF 393 = system: RXF 393
UACC-62 = system: UACC-62

Compound	GI50 (IGROV-1)	GI50 (UACC-257)	GI50 (SNB-19)	GI50 (ACHN)	GI50 (OVCAR-3)	GI50 (NCI-H522)	GI50 (HCT-116)	GI50 (MOLT-4)	GI50 (T47D)	GI50 (MCF7)	GI50 (DU-145)	GI50 (TK-10)	GI50 (A498)	GI50 (SW-620)	GI50 (OVCAR-4)	GI50 (Hs-578T)	GI50 (RXF 393)	GI50 (UACC-62)
O=C(O)c1cc(C(=O)O)nc(C(=O)O)c1	> 100 µM (inactive)	> 100 µM (inactive)	> 100 µM (inactive)	> 100 µM (inactive)	> 100 µM (inactive)	> 100 µM (inactive)	> 100 µM (inactive)	> 100 µM (inactive)	> 100 µM (inactive)	> 100 µM (inactive)	> 100 µM (inactive)	> 100 µM (inactive)	> 100 µM (inactive)	> 100 µM (inactive)	> 100 µM (inactive)	> 100 µM (inactive)	> 100 µM (inactive)	> 100 µM (inactive)
Nc1nc2c(C(=O)NCc3cccs3)nnn2c2cccc(Cl)c12	> 100 µM (inactive)	> 100 µM (inactive)	> 100 µM (inactive)	> 100 µM (inactive)	> 100 µM (inactive)	> 100 µM (inactive)	> 100 µM (inactive)	89.5 µM (inactive)	19.5 µM (inactive)	53.8 µM (inactive)	> 100 µM (inactive)	> 100 µM (inactive)	> 100 µM (inactive)	91.2 µM (inactive)	> 100 µM (inactive)	> 100 µM (inactive)	59.4 µM (inactive)	> 100 µM (inactive)
CC[P+](c1ccccc1)(N(C)C)N(C)C	> 100 µM (inactive)	> 100 µM (inactive)	> 100 µM (inactive)	> 100 µM (inactive)	> 100 µM (inactive)	89.5 µM (inactive)	> 100 µM (inactive)	> 100 µM (inactive)	> 100 µM (inactive)	> 100 µM (inactive)	> 100 µM (inactive)	> 100 µM (inactive)	> 100 µM (inactive)	> 100 µM (inactive)	> 100 µM (inactive)	> 100 µM (inactive)	> 100 µM (inactive)	> 100 µM (inactive)
CN(C)c1ccc2nc3c(C(=O)O)cc(O)c(O)c3[o+]c2c1	92.3 µM (inactive)	14.8 µM (inactive)	28.7 µM (inactive)	31.5 µM (inactive)	13.3 µM (inactive)	5.48 µM (inactive)	24.9 µM (inactive)	14.4 µM (inactive)	15.1 µM (inactive)	21.1 µM (inactive)	31.8 µM (inactive)	21.8 µM (inactive)	> 100 µM (inactive)	31 µM (inactive)	29 µM (inactive)	68.4 µM (inactive)	24.6 µM (inactive)	20 µM (inactive)
O=C(N/N=C/c1c(-c2ccccc2)no[n+]1[O-])N1CCOCC1	> 100 µM (inactive)	> 100 µM (inactive)	> 100 µM (inactive)	> 100 µM (inactive)	> 100 µM (inactive)	> 100 µM (inactive)	> 100 µM (inactive)	26.3 µM (inactive)	> 100 µM (inactive)	> 100 µM (inactive)	> 100 µM (inactive)	> 100 µM (inactive)	> 100 µM (inactive)	> 100 µM (inactive)	> 100 µM (inactive)	> 100 µM (inactive)	> 100 µM (inactive)	> 100 µM (inactive)
Cc1c(C=C(C#N)C#N)c(=O)n(C)c(=O)n1C	> 100 µM (inactive)	> 100 µM (inactive)	> 100 µM (inactive)	> 100 µM (inactive)	> 100 µM (inactive)	31.4 µM (inactive)	> 100 µM (inactive)	95.3 µM (inactive)	> 100 µM (inactive)	> 100 µM (inactive)	> 100 µM (inactive)	> 100 µM (inactive)	> 100 µM (inactive)	> 100 µM (inactive)	> 100 µM (inactive)	> 100 µM (inactive)	> 100 µM (inactive)	> 100 µM (inactive)
C=CCn1c(=O)c2ccccc2[n+]2c(-c3cccc([N+](=O)[O-])c3)csc12	50.5 µM (inactive)	36.3 µM (inactive)	> 100 µM (inactive)	> 100 µM (inactive)	33.9 µM (inactive)	36.1 µM (inactive)	38.9 µM (inactive)	24.7 µM (inactive)	19.7 µM (inactive)	42.9 µM (inactive)	50.4 µM (inactive)	38.4 µM (inactive)	31.6 µM (inactive)	> 100 µM (inactive)	64.4 µM (inactive)	24.4 µM (inactive)	37.2 µM (inactive)	31.6 µM (inactive)
CCn1c(=O)c2cn[nH]c2n(C)c1=O	66.7 µM (inactive)	> 100 µM (inactive)	> 100 µM (inactive)	> 100 µM (inactive)	> 100 µM (inactive)	> 100 µM (inactive)	> 100 µM (inactive)	> 100 µM (inactive)	> 100 µM (inactive)	> 100 µM (inactive)	> 100 µM (inactive)	> 100 µM (inactive)	> 100 µM (inactive)	> 100 µM (inactive)	> 100 µM (inactive)	> 100 µM (inactive)	> 100 µM (inactive)	> 100 µM (inactive)
CN1CCC23c4c5ccc(O)c4OC2c2[nH]c4ccccc4c2CC3(O)C1C5 (stereo not given)	66.4 µM (inactive)	18.5 µM (inactive)	65.5 µM (inactive)	24.4 µM (inactive)	42.6 µM (inactive)	37 µM (inactive)	35.4 µM (inactive)	18.6 µM (inactive)	20.8 µM (inactive)	36.3 µM (inactive)	97.7 µM (inactive)	18.9 µM (inactive)	18.8 µM (inactive)	22.4 µM (inactive)	38.5 µM (inactive)	24.2 µM (inactive)	23.5 µM (inactive)	23.4 µM (inactive)
COC(=O)c1ccccc1C1CN=NC12Cc1c(C)ccc(C)c1C2=O (stereo not given)	> 100 µM (inactive)	> 100 µM (inactive)	> 100 µM (inactive)	> 100 µM (inactive)	> 100 µM (inactive)	> 100 µM (inactive)	82.6 µM (inactive)	88.5 µM (inactive)	> 100 µM (inactive)	> 100 µM (inactive)	> 100 µM (inactive)	> 100 µM (inactive)	> 100 µM (inactive)	> 100 µM (inactive)	> 100 µM (inactive)	> 100 µM (inactive)	> 100 µM (inactive)	> 100 µM (inactive)
CSC(=S)Nc1cc(C)cc(C)n1	> 100 µM (inactive)	> 31.6 µM (inactive)	> 31.6 µM (inactive)	> 31.6 µM (inactive)	> 31.6 µM (inactive)	18.7 µM (inactive)	> 10 µM (inactive)	> 31.6 µM (inactive)	> 31.6 µM (inactive)	> 31.6 µM (inactive)	> 31.6 µM (inactive)	> 31.6 µM (inactive)	> 100 µM (inactive)	> 31.6 µM (inactive)	> 31.6 µM (inactive)	> 31.6 µM (inactive)	> 31.6 µM (inactive)	> 31.6 µM (inactive)
Cc1cc(=O)n2c3c(c4c(cc13)c(CN(C)C)cc(=O)n4C)OC2	9.51 µM (inactive)	21.9 µM (inactive)	15.8 µM (inactive)	4.97 µM (inactive)	18.6 µM (inactive)	0.9 µM (active)	5.2 µM (inactive)	7.48 µM (inactive)	38.5 µM (inactive)	6.47 µM (inactive)	20 µM (inactive)	19.6 µM (inactive)	38.2 µM (inactive)	9.98 µM (inactive)	9.27 µM (inactive)	12.4 µM (inactive)	6.56 µM (inactive)	12.6 µM (inactive)
Clc1ccc(CCNCCNC2(c3cc4ccccc4s3)CCCCC2)cc1Cl	1.81 µM (inactive)	1.81 µM (inactive)	1.92 µM (inactive)	1.73 µM (inactive)	1.45 µM (inactive)	1.84 µM (inactive)	1.73 µM (inactive)	2.49 µM (inactive)	1.95 µM (inactive)	1.71 µM (inactive)	1.88 µM (inactive)	1.7 µM (inactive)	1.78 µM (inactive)	1.86 µM (inactive)	1.64 µM (inactive)	2.05 µM (inactive)	2.01 µM (inactive)	1.74 µM (inactive)
CCOC(=O)c1ccc2nc(NC(=O)COC(=O)CSc3nc(C)cc(C)n3)sc2c1	27 µM (inactive)	> 100 µM (inactive)	37.8 µM (inactive)	46.5 µM (inactive)	25.3 µM (inactive)	64 µM (inactive)	77.3 µM (inactive)	42.5 µM (inactive)	16.7 µM (inactive)	35.9 µM (inactive)	28.3 µM (inactive)	29.3 µM (inactive)	34 µM (inactive)	> 100 µM (inactive)	42.9 µM (inactive)	36 µM (inactive)	30.3 µM (inactive)	25.8 µM (inactive)
COC(=O)c1ccccc1C1CN=NC12Cc1c(ccc(C)c1C)C2=O (stereo not given)	> 100 µM (inactive)	> 100 µM (inactive)	85.9 µM (inactive)	> 100 µM (inactive)	45.7 µM (inactive)	> 100 µM (inactive)	> 100 µM (inactive)	> 100 µM (inactive)	> 100 µM (inactive)	> 100 µM (inactive)	> 100 µM (inactive)	> 100 µM (inactive)	> 100 µM (inactive)	> 100 µM (inactive)	42.3 µM (inactive)	80.9 µM (inactive)	> 100 µM (inactive)	> 100 µM (inactive)

Source: ChEMBL document CHEMBL1201862, “PubChem BioAssay data set” (2004)
